Blank lines part the entries; values can stand above or below the molecule they belong to.
Tests used:
[1] = tested on: BRD2, BRD3 and BRD4 proteins in RS4;11 cells; settings: for lowest concentration very effective in inducing degradation of BET proteins: 3 h treatment
[2] = tested on: MV4;11, MOLM-13 and RS4;11 acute leukemia cell lines; assay: Cell growth inhibition, statements covering the three leukemia cell lines; type: cell-based, human
[3] = tested on: cleaved PARP and cleaved Caspase 3 in RS4;11 cells; assay: Western blotting of cleaved PARP / caspase 3 in RS4; type: cell-based, human; settings: RS4;11 cells; for apoptosis induction revealed by cleavage of PARP: 1 and 10 nM, 24 h treatment
[4] = tested on: c-Myc protein in RS4;11 cells; assay: Western blotting of c-Myc in RS4; type: cell-based, human; settings: RS4;11 cells, 3 h treatment
[5] = target: T1, BRD4 BD1 protein (Homo sapiens, UniProt O60885); assay: biochemical
[6] = target: T1, BRD4 BD1 protein; settings: for times less potent than 3 in binding to BRD4 BD1: vs compound 3
[7] = tested on: MOLM-13 cells; assay: Apoptosis by flow cytometry; type: cell-based, human; settings: MOLM-13, 1–10 μM
[8] = tested on: MV4;11 cells; assay: Apoptosis by flow cytometry; type: cell-based, human; settings: MV4;11, 1–10 μM
[9] = tested on: RS4;11 cells; assay: Apoptosis by flow cytometry; type: cell-based, human; settings: RS4;11, 1–10 μM

Molecule: 4-(4-((3-Benzyl-9-methyl-4H,6H-thieno[2,3-e][1,2,4]triazolo[3,4-c][1,4]oxazepin-2-yl)ethynyl)-1H-pyrazol-1-yl)-2-(2,6-dioxopiperidin-3-yl)isoindoline-1,3-dione [Compound 26]
degradation of BRD2, BRD3 and BRD4 proteins ([1]; up to 1,000 nM, 24 h treatment): failed to induce degradation | cell growth inhibitory activity ([2]; concentrations up to 1,000 nM, any of the three leukemia cell lines): failed to show significant cell growth inhibitory activity

Molecule: 4-(5-(4-((3-Benzyl-9-methyl-4H,6H-thieno[2,3-e][1,2,4]triazolo[3,4-c][1,4]oxazepin-2-yl)ethynyl)-1H-pyrazol-1-yl)pent-1-yn-1-yl)-2-(2,6-dioxopiperidin-3-yl)isoindoline-1,3-dione [Compound 36]
times less potent than 35 in cell growth inhibition ([2]; three leukemia cell lines): 10–100 times

Molecule: 4-((2-(4-((3-Benzyl-9-methyl-4H,6H-thieno[2,3-e][1,2,4]triazolo[3,4-c][1,4]oxazepin-2-yl)ethynyl)-1H-pyrazol-1-yl)ethyl)amino)-2-(2,6-dioxopiperidin-3-yl)isoindoline-1,3-dione [Compound 28]
apoptosis induction revealed by cleavage of PARP [3]: potently induce apoptosis

Molecule: 4-((3-(4-((3-Benzyl-9-methyl-4H,6H-thieno[2,3-e][1,2,4]triazolo[3,4-c][1,4]oxazepin-2yl)ethynyl)-1H-pyrazol-1-yl)propyl)amino)-2-(2,6-dioxopiperidin-3-yl)isoindoline-1,3-dione [Compound 29]
lowest concentration very effective in inducing degradation of BET proteins [1]: ≤ 0.1 nM | apoptosis induction revealed by cleavage of PARP [3]: potently induce apoptosis | times more potent than 28 in cell growth inhibition ([2]; three cell lines): 3–10 times

Molecule: 4-((4-(4-((3-Benzyl-9-methyl-4H,6H-thieno[2,3-e][1,2,4]triazolo[3,4-c][1,4]oxazepin-2yl)ethynyl)-1H-pyrazol-1-yl)butyl)amino)-2-(2,6-dioxopiperidin-3-yl)isoindoline-1,3-dione [Compound 30]
lowest concentration reducing the levels of c-Myc protein [4]: ≤ 0.1 nM | lowest concentration very effective in inducing degradation of BET proteins [1]: ≤ 0.1 nM | apoptosis induction revealed by cleavage of PARP [3]: potently induce apoptosis | times more potent than 29 in cell growth inhibition ([2]; each of the three leukemia cell lines): 2–3 times

Molecule: 4-((4-((3-Benzyl-9-methyl-4H,6H-thieno[2,3-e][1,2,4]triazolo[3,4-c][1,4]oxazepin-2-yl)ethynyl)-1H-pyrazol-1-yl)methoxy)-2-(2,6-dioxopiperidin-3-yl)isoindoline-1,3-dione [Compound 27]
degradation of BRD2 and BRD3 relative to BRD4 [1]: more effectively than the BRD4 protein | relative potency in inducing degradation of BET proteins [1]: much less potent than compounds 29, 30 and 31 | lowest concentration very effective in inducing degradation of BRD2, BRD3 and BRD4 ([1]; time- and dose-dependent): ≤ 10 nM

Molecule: 4-((5-(4-((3-Benzyl-9-methyl-4H,6H-thieno[2,3-e][1,2,4]triazolo[3,4-c][1,4]oxazepin-2-yl)ethynyl)-1H-pyrazol-1-yl)pentyl)amino)-2-(2,6-dioxopiperidin-3-yl)isoindoline-1,3-dione [Compound 31]
lowest concentration reducing the levels of c-Myc protein [4]: ≤ 0.1 nM | lowest concentration very effective in inducing degradation of BET proteins [1]: ≤ 0.1 nM | apoptosis induction revealed by cleavage of PARP [3]: potently induce apoptosis

IC50 [5]: 4.4 ± 0.7 µM | Ki [5]: 1.5 ± 0.2 µM
Molecule: Cc1cc2c(s1)-n1c(C)nnc1COC2 [Compound 2, 2,9-dimethyl-4H,6H-thieno[2,3-e][1,2,4]triazolo[3,4-c][1,4]oxazepine]

times less potent than 3 in binding to BRD4 BD1 [6]: 25 times
Molecule: Cc1nnc2n1-c1scc(Cc3ccccc3)c1COC2 [Compound 4, 3-Benzyl-9-methyl-4H,6H-thieno[2,3-e][1,2,4]triazolo[3,4-c][1,4]oxazepine]

times less potent than 3 in binding to BRD4 BD1 [6]: > 50 times
Molecule: Cc1nnc2n1-c1sc(C3CCOCC3)c(Cc3ccccc3)c1COC2 [Compound 6, 3-Benzyl-9-methyl-2-(tetrahydro-2H-pyran-4-yl)-4H,6H-thieno[2,3-e][1,2,4]triazolo[3,4c][1,4]oxazepine]

times less potent than 3 in binding to BRD4 BD1 [6]: 6 times | times less potent than 8 in binding to BRD4 BD1 ([6]; vs compound 8): 3 times
Molecule: Cc1nnc2n1-c1sc(C#N)c(Cc3ccccc3)c1COC2 [Compound 9, 3-Benzyl-9-methyl-4H,6H-thieno[2,3-e][1,2,4]triazolo[3,4-c][1,4]oxazepine-2-carbonitrile]

Molecule: Cc1nnc2n1-c1sc(C#Cc3cnn(C)c3)c(Cc3ccccc3)c1COC2 [Compound 22, 3-Benzyl-9-methyl-2-((1-methyl-1H-pyrazol-4-yl)ethynyl)-4H,6H-thieno[2,3-e][1,2,4]triazolo[3,4-c][1,4]oxazepine]
apoptosis induction [7]: minimal to modest effect | apoptosis induction [8]: minimal to modest effect | apoptosis induction [9]: minimal to modest effect | PARP cleavage ([3]; 10 μM, 24 h): only marginally
